The supplement of paper PMC10307832

Legend:
Test in all cases: relative viability (nuclei count vs DMSO), 5 days (fraction); higher = more cells survive
[1] = compound: CC(O)(CS(=O)(=O)c1ccc(F)cc1)C(=O)Nc1ccc(C#N)c(C(F)(F)F)c1 [Bicalutamide] + CC(=O)c1c(C)c2cnc(Nc3ccc(N4CCNCC4)cn3)nc2n(C2CCCC2)c1=O [Palbociclib] (partner 0.5 µM)
Summary of the method: (§1)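 Relative viability equals treated-well nuclei counts divided by vehicle-well nuclei counts. Counts came from 4× images of lung cancer cell lines grown in 1536-well plates for 5 days after pin-tool dosing on the day after seeding. Dosing used one drug alone or a fixed anchor-drug dose plus five library-drug doses (not always all listed) in √10 steps, and values are medians of duplicate plates.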

[2] = compound: CC(O)(CS(=O)(=O)c1ccc(F)cc1)C(=O)Nc1ccc(C#N)c(C(F)(F)F)c1 [Bicalutamide] + NC(=O)Nc1cc(-c2cccc(F)c2)sc1C(=O)N[C@H]1CCCNC1 [AZD7762] (partner 0.2 µM)
Summary of the method: as §1

[3] = compound: C(C(=O)C(=O)O)Br [Bromopyruvate] + Cc1nc(NC(=O)N2CCC[C@H]2C(N)=O)sc1-c1ccnc(C(C)(C)C(F)(F)F)c1 [Alpelisib] (partner 2 µM)
Summary of the method: as §1

[4] = compound: CC(O)(CS(=O)(=O)c1ccc(F)cc1)C(=O)Nc1ccc(C#N)c(C(F)(F)F)c1 [Bicalutamide] + CC(C)C[C@H](NC(=O)[C@H](Cc1ccccc1)NC(=O)c1cnccn1)B(O)O [Bortezomib] (partner 0.002 µM)
Summary of the method: as §1

Cell Line	relative viability ([1]; first compound 0.08 µM)	relative viability ([1]; first compound 0.253 µM)	relative viability ([1]; first compound 0.8 µM)	relative viability ([1]; first compound 2.53 µM)	relative viability ([2]; first compound 0.08 µM)	relative viability ([2]; first compound 0.253 µM)	relative viability ([2]; first compound 0.8 µM)	relative viability ([2]; first compound 2.53 µM)	relative viability ([3]; first compound 1 µM)	relative viability ([3]; first compound 3.162 µM)	relative viability ([3]; first compound 10 µM)	relative viability ([3]; first compound 31.62 µM)	relative viability ([3]; first compound 100 µM)	relative viability ([4]; first compound 0.08 µM)	relative viability ([4]; first compound 0.8 µM)	relative viability ([4]; first compound 2.53 µM)	relative viability ([4]; first compound 0.253 µM)
NCI-H441	0.33	0.142	0.24	0.202	1.06	1.08	1.13	1.16	0.835	1.01	0.714	0.658	0.547	0.566	0.531	0.398	–
PC-14	0.583	0.466	0.677	0.422	0.314	0.329	0.443	0.353	1.02	1.01	0.93	0.966	0.964	0.923	0.827	0.89	0.974
HARA	0.246	0.262	0.329	0.242	0.382	–	0.368	0.262	0.792	0.868	1.04	0.802	0.858	1.15	1.14	1.22	1.02
NCI-H2126	0.339	0.339	0.344	0.32	0.994	0.918	1.01	0.856	0.796	0.755	0.768	0.751	0.744	1.12	1.08	1.06	1.09
NCI-H1437	0.305	0.283	0.342	0.343	1.17	1.13	1.15	1.19	0.967	1.06	1.21	0.911	0.989	0.493	0.759	0.455	0.372
NCI-H1792	0.653	0.569	0.759	0.614	0.756	0.522	0.741	0.644	0.715	0.788	0.906	0.708	0.703	0.983	0.983	1.07	0.957
201T	0.379	0.351	0.386	0.365	0.637	0.408	0.586	0.599	1.02	0.989	0.944	0.998	1.08	1.1	1.08	1.12	1.06
HCC-44	0.953	1.03	1.04	0.944	1.02	1.05	1.02	1.01	0.781	0.83	0.859	0.916	0.863	0.936	0.961	0.989	0.953
NCI-H647	0.415	0.381	0.503	0.385	0.512	0.397	0.549	0.321	1.12	1.15	1.46	1.48	1.2	0.973	1.4	0.903	0.96
H3255	0.35	0.324	0.308	0.302	0.949	0.791	1.11	0.823	0.765	0.647	0.86	0.856	0.783	0.798	0.783	0.698	0.632
NCI-H650	0.372	0.345	0.397	0.267	0.847	1.09	1.21	0.886	1.03	1.2	1.28	1.07	1.02	0.907	0.918	0.553	0.87
NCI-H2085	0.494	0.465	0.478	0.468	0.983	0.99	1.02	0.901	0.968	0.785	0.894	0.975	0.851	1.14	1.08	0.996	0.944
NCI-H2347	0.473	0.468	0.446	0.399	0.797	0.753	0.753	0.73	1.07	1.16	1.38	0.849	1.13	1.21	1.4	0.903	0.989
EKVX	0.381	0.392	0.445	0.374	0.693	0.613	0.797	0.664	0.875	0.815	1.01	0.86	0.943	0.994	1.37	0.952	1.1
EPLC-272H	0.328	0.313	0.341	0.295	0.155	0.297	0.215	0.239	1.05	1.17	0.941	0.806	1.04	0.873	0.904	0.894	0.666
LXF-289	0.596	0.543	0.614	0.592	1.17	1.05	1.11	1.1	1.07	1.03	1.04	1.03	1.08	0.98	1.02	0.963	0.908

Cell Line	relative viability ([1]; first compound 0.08 µM)	relative viability ([1]; first compound 0.253 µM)	relative viability ([1]; first compound 0.8 µM)	relative viability ([1]; first compound 2.53 µM)	relative viability ([2]; first compound 0.08 µM)	relative viability ([2]; first compound 0.253 µM)	relative viability ([2]; first compound 0.8 µM)	relative viability ([2]; first compound 2.53 µM)	relative viability ([3]; first compound 1 µM)	relative viability ([3]; first compound 3.162 µM)	relative viability ([3]; first compound 10 µM)	relative viability ([3]; first compound 31.62 µM)	relative viability ([3]; first compound 100 µM)	relative viability ([4]; first compound 0.08 µM)	relative viability ([4]; first compound 0.8 µM)	relative viability ([4]; first compound 2.53 µM)	relative viability ([4]; first compound 0.253 µM)
NCI-H3122	0.193	0.183	0.201	0.181	0.98	1	1.05	1.01	0.841	0.831	0.859	0.729	0.718	1.03	0.988	1.03	1.03
NCI-H1755	0.472	0.42	0.473	0.43	0.382	0.388	0.475	0.365	0.95	0.925	0.968	0.963	0.97	0.97	0.938	0.895	0.892
HCC-78	0.464	0.513	0.499	0.476	0.758	0.598	0.696	0.611	0.305	0.354	0.421	0.452	0.373	0.498	0.479	0.556	0.504
LOU-NH91	0.449	0.548	0.553	0.541	0.725	0.653	0.793	0.751	0.764	0.732	0.721	0.775	0.868	0.53	0.441	0.523	0.493
NCI-H322M	0.515	0.482	0.464	0.524	0.581	0.521	0.579	0.572	0.804	0.73	0.843	0.779	0.798	1.13	1.4	1.35	1.32
HCC-827	0.499	0.389	0.496	0.476	0.234	0.124	0.217	0.227	1.03	0.988	0.972	1.02	0.967	1.12	1.04	0.98	0.964
NCI-H1975	0.627	0.532	0.688	0.492	0.769	0.783	0.722	0.667	0.77	0.752	0.606	0.635	0.593	0.314	0.417	0.372	0.296
NCI-H1651	0.526	0.515	0.582	0.518	0.513	0.396	0.549	0.436	0.881	1.06	0.876	0.868	0.912	0.917	1.04	0.959	0.864
NCI-H460	0.171	0.185	0.193	0.102	0.816	0.659	0.76	0.735	0.432	0.603	0.594	0.374	0.436	1.15	1.35	1.12	1.09
LCLC-103H	0.467	0.478	0.53	0.51	0.829	0.791	0.8	0.814	0.981	0.938	1.01	0.95	0.985	1.1	1.15	1	1.08
LCLC-97TM1	0.227	0.216	0.3	0.225	0.388	0.186	0.225	0.232	–	–	0.272	0.302	0.183	0.726	0.635	0.461	0.543
NCI-H838	0.225	0.195	0.256	0.179	0.965	0.958	1.02	0.909	1.01	0.983	1.01	0.981	1.13	0.715	1.28	0.624	0.626
NCI-H1355	0.4	0.382	0.437	0.374	0.828	0.701	0.923	0.72	0.833	0.961	0.774	0.872	0.903	1.21	1.43	1.1	1.07
HOP-62	0.47	0.464	0.566	0.502	0.567	0.494	0.848	0.432	0.696	1.06	–	0.426	0.698	0.683	0.725	0.92	0.527
NCI-H2087	0.222	0.272	0.237	0.24	1.29	1.29	1.58	1.26	1.03	1.14	1.02	1.25	0.829	0.785	1.04	0.75	0.825
